Test [1] relates to recombinant TKL3 kinase domain. Kind of test: Radioactive in vitro kinase assay with recombinant TKL3 kinase domain. Format: biochemical, Plasmodium falciparum. Particulars: 20 μM compound. The protocol:
Recombinant proteins were expressed in E. coli as previously described ([Abdi et al., 2010]). […] The cultures were then cooled to 20°C followed by induction of protein expression with 0.5 mM IPTG and further incubation at 20°C, 200 rpm for 16 h. Cultures were harvested by centrifugation at 4000g, 4°C for 10 min. Bacterial pellets were washed once in 1× PBS and were stored at −80°C. Cell pellets were resuspended in ice-cold Lysis Buffer (50 mM sodium phosphate, pH 8.0, 400 mM NaCl, 5 % (w/v) glycerol, 0.1 % (v/v) Triton X-100, 20 mM imidazole, 2 mM β-mercaptoethanol, 1× Roche protease inhibitor cocktail EDTA-free, 1 mg/ml lysozyme). Cells were disrupted by sonication. Protein was bound on a HisTrap HP column and eluted with a linear gradient of increasing imidazole concentrations. The peak fractions as determined by A280 trace were pooled together and further purified by size exclusion chromatography on a S200 gel filtration column equilibrated in 25 mM Tris pH 7.5, 100 mM NaCl, 5 % (w/v) glycerol, 1 mM DTT. Protein was pooled and concentrated. Final concentration was determined using a Bradford assay with a BSA protein standard.
Kinase assays containing 3 μg of recombinant kinase (WT or mutant) were performed in kinase assay buffer (25 mM Hepes, pH 7.5, 2 mM MnCl2, 10 mM β-glycerophosphate, 10 mM NaF, 25 μM ATP (containing 5 μCi [γ-^32P]-ATP-3000 mCi/mmol (PerkinElmer)), 5 μg substrate myelin basic protein (MBP) and ± 20 μM inhibitor) in a final reaction volume of 20 μl and incubated at 30°C for 30 min. Reactions were stopped by the addition of 5× Laemmli sample buffer and heated to 98°C for 5 min. Proteins were resolved by 4-12 % SDS-PAGE and stained in Coomassie Brilliant Blue. Kinase activity was detected by phosphorimaging. Imaging was performed on a Typhoon 5 Biomolecular imager (GE Healthcare Life Sciences).

Test [2] concerns mature (stage V) NF54 gametocytes. Kind of test: Gametocyte susceptibility, saponin lysis-based MitoTracker high-content imaging assay. It counts as cell-based. Particulars: Plasmodium falciparum, saponin lysis-based sexual stage assay, 72 h. On the procedure: This was determined using two separate assays. The first involved MitoTracker staining and high-content imaging. Mature (stage V) gametocytes were generated from NF54 ABS cultures as described elsewhere ([Plouffe et al., 2016]). Briefly, asexual parasites were cultured at 5% hematocrit in O^+ human erythrocytes in serum-containing complete media (RPMI 1640 (Life Technologies), 0.05 mg/ml gentamicin (Life Technologies), 0.014 mg/ml hypoxanthine (Sigma), 38.4 mM HEPES (Sigma), 0.2% (w/v) sodium bicarbonate (Sigma), D-glucose 0.2% (w/v) (Sigma), 3.4 mM sodium hydroxide (Sigma), 4.3% (v/v) heat-inactivated human serum (O^+, Interstate Blood bank), and 0.2% (w/v) AlbuMAX® II (Life Technologies)). […] The second assay assessed gametocyte susceptibility using a luciferase-based assay with 3D7elo1-pfs16-CBG99 transgenic parasites ([Cevenini et al., 2014]). […] Cell viability was then evaluated by adding a non-lysing formulation of 0.5 mM D-Luciferin substrate and measuring luciferase activity for 0.5 s on a Varioskan™ Flash Multimode Reader (Thermo Scientific). The percent of viability was calculated as a function of drug concentration and IC50 values were derived by non-linear regression analysis and curve fitting (using GraphPad Prism 6.0).

Take `CC(C)(CN)c1nc(-c2ccc(Cl)c(O)c2)c(-c2ccncc2)[nH]1` [MMV030084]: in test [1], the “Reduction in TKL3 kinase activity” value is listed as “no reduction”. In test [2], the half-maximal inhibitory concentration (IC50) (usually the midpoint of a concentration-inhibition curve) was over 40 µM.
